The target in one assay is T1, M. sexta V-ATPase (Manduca sexta, UniProt P31403).
T1 construct: The M. sexta V1Vo holoenzyme was extracted and purified as described previously; from tissue
The experiment in a line: V-ATPase assay, detection of released phosphate, purified V1Vo holoenzyme. The note with it: Fig. 5, read-out: apparent Ki, inhibition of M. sexta V-ATPase. Format: biochemical. The protocol:
(§1) S. oryzae strains WAA42 and ISOR3 were reared according to Louis et al. ([25]). […] PA1b labeling using ^125I and binding assays using the ^125I toxin were performed according to Ref. [22], and binding data were analyzed using the SIMFIT software. Fifth instar larvae of M. sexta (Lepidoptera, Sphingidae), weighing 6–8 g, were reared under long day conditions (16 h of light) at 27 °C using the gypsy moth diet (MP Biomedicals).
(§2) V-ATPase assays based on the detection of released phosphate using the M. sexta V-ATPase or yeast vacuolar membranes were carried out as reported previously ([23], [28], [29]).
(§3) FIGURE 5. Inhibition of yeast V-ATPase activity. […] For comparison, inhibition of the purified V1Vo holoenzyme of M. sexta (squares) by PA1b is included.

Another assay concerns S. oryzae strain ISOR3. The experiment in a line: Weevil toxicity bioassay, inhibitor in the food, PA1b-resistant strain. The note with it: 30 weevils; for Mortality: 14 days. It counts as in vivo, Sitophilus oryzae. The protocol:
as §1
(§4) FIGURE 6. […] 30 rice weevils (S. oryzae) were fed on artificial diet incorporating each tested compound over 14 days. The weevil strains were WAA42 (PA1b-sensitive strain: open symbols) and ISOR3 (PA1b-resistant strain: filled symbols). […] Open diamonds/dashed line, control for artificial diet with bafilomycin solvent.

The test system of another assay is S. oryzae strain WAA42. In words: Weevil toxicity bioassay, inhibitor in the food, PA1b-sensitive strain. Format: in vivo, Sitophilus oryzae. The following applies: 30 weevils, artificial diet over 14 days. As to the method:
as §1, §4

Assay [1] has as its system crude membrane extract of S. oryzae (PA1b binding site). More on the design: species or system Sitophilus oryzae. The note with it: WAA42 membrane extracts; bafilomycin up to 10 μM; data not shown.
The target of assay [2] is V-ATPase from wild type S. cerevisiae strain BMA64-1B (Saccharomyces cerevisiae, UniProt P23968+P25515+P32842). The experiment in a line: V-ATPase assay on yeast vacuolar membranes, wild type strain. It counts as biochemical. The following applies: Fig. 5, read-out: Ki, inhibition of V-ATPase activity. The protocol:
as §2, §3

The record followed here is PMC4047407 (The Journal of Biological Chemistry, 2014).

Where a SMILES comes first, the peptide text is derived from it. Bridges are numbered along the chain shown (N, C = ends).

T1 sequence (P31403 whole entry): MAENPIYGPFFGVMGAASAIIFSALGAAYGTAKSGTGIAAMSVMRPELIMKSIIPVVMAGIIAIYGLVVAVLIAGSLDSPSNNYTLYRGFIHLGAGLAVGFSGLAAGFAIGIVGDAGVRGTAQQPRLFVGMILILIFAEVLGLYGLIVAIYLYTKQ

With `CC[C@H](C)[C@@H]1NC(=O)[C@H](C(C)C)NC(=O)[C@H](CC(C)C)NC(=O)CNC(=O)[C@H](C(C)C)NC(=O)[C@@H]2CCCN2C(=O)[C@H]([C@@H](C)CC)NC(=O)[C@@H]2CSSC[C@@H]3NC(=O)[C@H](C(C)C)NC(=O)CNC(=O)[C@H](CC(N)=O)NC(=O)[C@@H](NC(=O)[C@H](CO)NC(=O)[C@H](C)N)CSSC[C@H](NC(=O)[C@H](C)NC(=O)[C@H](CO)NC(=O)[C@H]([C@@H](C)O)NC(=O)CNC(=O)[C@H](CSSC[C@@H](C(=O)N[C@@H](CCCNC(=N)N)C(=O)N[C@@H](CC(N)=O)C(=O)N4CCC[C@H]4C(=O)N[C@@H](CO)C(=O)NCC(=O)O)NC(=O)[C@H](Cc4ccc(O)cc4)NC(=O)CNC1=O)NC(=O)[C@@H]1CCCN1C(=O)[C@@H]1CCCN1C(=O)[C@H](CCSC)NC(=O)[C@H](CCC(=O)O)NC(=O)[C@H](Cc1ccccc1)NC(=O)[C@@H]1CCCN1C(=O)[C@H](CO)NC3=O)C(=O)N[C@@H](CCCNC(=N)N)C(=O)N2` [PA1b, pea albumin 1 subunit b] (H-ASCNGVCSPFEMPPCGTSACRCIPVGLVIGYCRNPSG-OH; disulfide 3-20, 7-22, 15-32), the Ki on M. sexta V-ATPase was approximately 91 nM.
In the case of `CO/C1=C\C(C)=C\[C@@H](C)[C@@H](O)[C@@H](C)C/C(C)=C/C=C/[C@H](OC)[C@@H]([C@@H](C)[C@@H](O)[C@H](C)[C@@]2(O)C[C@@H](O)[C@H](C)[C@@H](C(C)C)O2)OC1=O` [bafilomycin, bafilomycin A1], the Mortality result in the assay on S. oryzae strain ISOR3 (bafilomycin 0.36 mg/g of food) and with S. oryzae strain ISOR3 (bafilomycin 0.60 mg/g of food) was “no mortality” throughout. Further, the TL50 in the assay with S. oryzae strain ISOR3 (bafilomycin 2.0 mg/g food, artificial diet over 14 days) was 9.9 ± 0.5 days; in the assay on S. oryzae strain WAA42 (bafilomycin 0.36 mg/g of food), 12.6 ± 2.3 days; with S. oryzae strain WAA42 (bafilomycin 0.60 mg/g of food), 9.4 ± 1 days; in the assay with S. oryzae strain WAA42 (bafilomycin 2.0 mg/g food), 4.0 ± 0.2 days. The “Inhibition of binding of radiolabeled PA1b by bafilomycin” value in assay [1] is “unable to inhibit”. Moreover, the Ki in assay [2] was approximately 2.4 nM.
